Series [1] in a line: in vitro. The settings on record: human.
Series [2] addresses recombinant Influenza A H1N1 (A/California/04/2009) neuraminidase (Influenza A virus (A/California/04/2009(H1N1)), UniProt C3W5S3). Put plainly: Fluorometric MUNANA neuraminidase inhibition assay (NA-Fluor kit). Type of series: biochemical.

SMILES strings stand for the structures.

With `COc1cc2c(cc1OC)C(C(C)C)N(S(N)(=O)=O)CC2` (stereo not shown) [Compound 6, 3,4-Dihydro-6,7-dimethoxy-1-(1-methylethyl)-2(1H)-isoquinolinesulfonamide], the CC50 at 24 h in series [1] was 534 µM.

Regarding `O=C(O)C1CCCN(C(=O)c2c[nH]c3ccccc23)C1` (stereo not shown) [Compound 1, 1-(1H-Indol-3-ylcarbonyl)-3-piperidinecarboxylic acid], the IC50 in series [2] was greater than 1000 µM. Further, the inhibition at 100 µM in series [2] (read-out: mean inhibition of NA activity, at 100 µM) was greater than 15%.

The molecule `COc1cccc2[nH]cc(C(=O)O)c12` [Compound 4, 4-Methoxy-1H-indole-3-carboxylic acid] came in with a CC50 at 24 h in series [1] of 244 µM.

`O=C(O)CCC(=O)c1c[nH]c2ccccc12` [Compound 3, γ-Oxo-1H-indole-3-butanoic acid] came in with a CC50 at 24 h in series [1] of 671 µM.

The molecule `COc1ccc([C@H]2[C@@H](C(=O)O)c3ccccc3C(=O)N2Cc2ccc(Cl)cc2)cc1` [Compound 5, (3R,4S)-2-[(4-Chlorophenyl)methyl]-1,2,3,4-tetrahydro-3-(4-methoxyphenyl)-1-oxo-4-isoquinolinecarboxylic acid] had a CC50 at 24 h in series [1] of 152 µM.

Regarding `CCOC(=O)C1=C[C@@H](OC(CC)CC)[C@H](NC(C)=O)[C@@H](N)C1` [oseltamivir, Oseltamivir phosphate, reference compound], the “inhibition of NA activity” value in series [2] (0.1 µM) is recorded as “approximately 20%”.

What is called IC50 is the concentration needed to halve the response being measured. The term inhibition denotes the share of the control response that was lost under treatment.

For the origin of these results see article PMC12693396, “Discovery of Influenza Neuraminidase Inhibitors: Structure-Based Virtual Screening and Biological Evaluation of Novel Chemotypes” (Molecules, 2025).
